# In patent publication US10183914B2 (BAYER CROPSCIENCE AKTIENGESELLSCHAFT, priority 2014, dated 2019):
# Experiments:
# Oryza sativa [1] = test: Pre-emergence herbicidal effect and crop plant compatibility; format: in vivo; details: 3 weeks
# Text: (§1) Seeds of monocotyledonous and dicotyledonous weed plants and crop plants are laid out in wood-fiber pots in sandy loam and covered with soil. The compounds of the invention, formulated in the form of wettable powders (WP) or as emulsion concentrates (EC), are then applied to the surface of the covering soil as aqueous suspension or emulsion at a water application rate equating to 600 to 800 L/ha with addition of 0.2% wetting agent.
# (§2) After the treatment, the pots are placed in a greenhouse and kept under good growth conditions for the trial plants. The damage to the trial plants is scored visually after a trial duration of 3 weeks by comparison with untreated controls (herbicidal activity in percent (%): 100% efficacy=the plants have died, 0% efficacy=like control plants).
# [2] = tested on: Triticum aestivum (spring); test: as above; format: in vivo; details: 3 weeks
# Text: as §1, §2
# Zea mays [3] = test: as above; format: in vivo; details: 3 weeks
# Text: as §1, §2
# Alopecurus myosuroides = test: Pre-emergence herbicidal effect; format: in vivo; details: 320 g/ha, 3 weeks
# Text: as §1, §2
# Amaranthus retroflexus = test: Pre-emergence herbicidal effect; format: in vivo; details: 3 weeks
# Text: as §1, §2
# Echinochloa crus-galli [4] = test: Pre-emergence herbicidal effect; format: in vivo; details: 3 weeks
# Text: as §1, §2
# Lolium multiflorum = test: Pre-emergence herbicidal effect; format: in vivo; details: 320 g/ha, 3 weeks
# Text: as §1, §2
# Matricaria inodora = test: Pre-emergence herbicidal effect; format: in vivo; details: 3 weeks
# Text: as §1, §2
# Polygonum convolvulus = test: Pre-emergence herbicidal effect; format: in vivo; details: 3 weeks
# Text: as §1, §2
# Setaria viridis = test: Pre-emergence herbicidal effect; format: in vivo; details: 3 weeks
# Text: as §1, §2
# Stellaria media = test: Pre-emergence herbicidal effect; format: in vivo; details: 3 weeks
# Text: as §1, §2
# Veronica persica = test: Pre-emergence herbicidal effect; format: in vivo; details: 3 weeks
# Text: as §1, §2
# Viola tricolor = test: Pre-emergence herbicidal effect; format: in vivo; details: 3 weeks
# Text: as §1, §2
# Oryza sativa [5] = test: Post-emergence herbicidal effect and crop plant compatibility; format: in vivo; details: visual scoring after about 3 weeks
# Procedure: (§3) Seeds of monocotyledonous and dicotyledonous weed and crop plants are laid out in sandy loam in wood-fiber pots, covered with soil and cultivated in a greenhouse under good growth conditions. 2 to 3 weeks after sowing, the test plants are treated at the one-leaf stage. The compounds of the invention, formulated in the form of wettable powders (WP) or as emulsion concentrates (EC), are then sprayed onto the green parts of the plants as aqueous suspension or emulsion at a water application rate equating to 600 to 800 L/ha with addition of 0.2% wetting agent. After the trial plants have been left to stand in a greenhouse under optimal growth conditions for about 3 weeks, the efficacy of the formulations is scored visually in comparison to untreated controls (herbicidal action in percent (%): 100% efficacy=the plants have died, 0% efficacy=like control plants).
# [6] = tested on: Triticum aestivum (spring); test: as above; format: in vivo; details: visual scoring after about 3 weeks
# Procedure: as §3
# Zea mays [7] = test: as above; format: in vivo; details: visual scoring after about 3 weeks
# Procedure: as §3
# Echinochloa crus-galli [8] = test: Post-emergence herbicidal effect; format: in vivo; details: 320 g/ha, visual scoring after about 3 weeks
# Procedure: as §3
# [9] = logp (HCOOH), physicochemical characterization
# Ipomoea purpurea = test: Post-emergence herbicidal effect; format: in vivo; details: 320 g/ha (dose by row order of upper half), scoring after about 3 weeks
# Procedure: as §3
# Avena fatua = test: Pre-emergence herbicidal effect; format: in vivo; details: 1280 g/ha, 3 weeks
# Text: as §1, §2
SMILES,ORYSA herbicidal activity in percent (Oryza sativa [1]; 320 g/ha) [%],TRZAS herbicidal activity in percent ([2]; 80 g/ha) [%],TRZAS herbicidal activity in percent ([2]; 320 g/ha) [%],ZEAMX herbicidal activity in percent (Zea mays [3]; 80 g/ha) [%],ZEAMX herbicidal activity in percent (Zea mays [3]; 320 g/ha) [%],ALOMY herbicidal activity in percent (Alopecurus myosuroides) [%],AMARE herbicidal activity in percent (Amaranthus retroflexus; 80 g/ha) [%],AMARE herbicidal activity in percent (Amaranthus retroflexus; 320 g/ha) [%],ECHCG herbicidal activity in percent (Echinochloa crus-galli [4]; 320 g/ha) [%],MATIN herbicidal activity in percent (Matricaria inodora; 320 g/ha) [%],POLCO herbicidal activity in percent (Polygonum convolvulus; 320 g/ha) [%],SETVI herbicidal activity in percent (Setaria viridis; 320 g/ha) [%],STEME herbicidal activity in percent (Stellaria media; 320 g/ha) [%],VERPE herbicidal activity in percent (Veronica persica; 320 g/ha) [%],VIOTR herbicidal activity in percent (Viola tricolor; 320 g/ha) [%],post-emergence efficacy ORYSA (Oryza sativa [5]; 80 g/ha) [%],post-emergence efficacy ORYSA (Oryza sativa [5]; 320 g/ha) [%],post-emergence efficacy TRZAS ([6]; 80 g/ha) [%],post-emergence efficacy ZEAMX (Zea mays [7]; 80 g/ha) [%],post-emergence efficacy ZEAMX (Zea mays [7]; 320 g/ha) [%],further results
CC(C)C1CC(=O)c2cnc(N[C@@H]3CCCc4ccccc43)nc2C1 (stereo partly shown) [2.102],0,0,0,0,0,100,80,100,100,100,90,100,100,100,100,0,0,20,0,0,ORYSA herbicidal activity in percent (Oryza sativa [1]; 80 g/ha): 0%; LOLMU herbicidal activity in percent (Lolium multiflorum): 100%; MATIN herbicidal activity in percent (Matricaria inodora; 80 g/ha): 90%; SETVI herbicidal activity in percent (Setaria viridis; 80 g/ha): 100%; STEME herbicidal activity in percent (Stellaria media; 80 g/ha): 100%; VERPE herbicidal activity in percent (Veronica persica; 80 g/ha): 100%; VIOTR herbicidal activity in percent (Viola tricolor; 80 g/ha): 100%; post-emergence efficacy ECHCG (Echinochloa crus-galli [8]): 100%
"CC1(C)CC(=O)c2cnc(N[C@@H]3CCCc4ccccc43)nc2C1 [2.25, 7,7-dimethyl-2-[(1R)-1,2,3,4-tetrahydronaphthalen-1-ylamino]-7,8-dihydroquinazolin-5(6H)-one]",0,0,,0,0,,90,100,100,100,100,100,100,100,100,0,0,10,0,0,chromatographic logP ([9]; HCOOH (formic acid)): 3.71; ORYSA herbicidal activity in percent (Oryza sativa [1]; 80 g/ha): 0%; MATIN herbicidal activity in percent (Matricaria inodora; 80 g/ha): 90%; STEME herbicidal activity in percent (Stellaria media; 80 g/ha): 100%; VERPE herbicidal activity in percent (Veronica persica; 80 g/ha): 100%; VIOTR herbicidal activity in percent (Viola tricolor; 80 g/ha): 100%; post-emergence efficacy TRZAS ([6]; 320 g/ha): 20%; post-emergence efficacy PHBPU (Ipomoea purpurea): 90%
CC(=O)c1cnc(N[C@@H]2CCc3c(F)cccc32)nc1 [1.90],20,,0,,20,,,90,,100,,,80,100,,,,,,,"logp (HCOOH) [9]: solid; m.p.: 111.5° C.; logp (HCOOH): 2.43; 1H-NMR (CDCl3, 400 MHZ, δ in ppm:; ORYSA herbicidal activity in percent (Oryza sativa [1]; 1280 g/ha): 20%; TRZAS herbicidal activity in percent ([2]; 1280 g/ha): 0%; ZEAMX herbicidal activity in percent (Zea mays [3]; 1280 g/ha): 20%; AMARE herbicidal activity in percent (Amaranthus retroflexus; 1280 g/ha): 100%; AVEFA herbicidal activity in percent (Avena fatua): 100%; ECHCG herbicidal activity in percent (Echinochloa crus-galli [4]; 1280 g/ha): 80%; MATIN herbicidal activity in percent (Matricaria inodora; 1280 g/ha): 100%; POLCO herbicidal activity in percent (Polygonum convolvulus; 1280 g/ha): 90%; STEME herbicidal activity in percent (Stellaria media; 1280 g/ha): 100%; VERPE herbicidal activity in percent (Veronica persica; 1280 g/ha): 100%; VIOTR herbicidal activity in percent (Viola tricolor; 1280 g/ha): 100%"
CC1(C)CC(=O)c2cnc(NC3CCOc4ccccc43)nc2C1 (racemic) [2.94],0,,0,,0,80,,100,100,100,100,90,100,100,100,0,0,10,0,0,"logp (HCOOH) [9]: oily; logp (HCOOH): 2.97; 1H-NMR (CDCl3, 400 MHZ, δ in ppm): 1.10 (s, 6H,; LOLMU herbicidal activity in percent (Lolium multiflorum): 90%; post-emergence efficacy TRZAS ([6]; 320 g/ha): 20%; post-emergence efficacy PHBPU (Ipomoea purpurea): 80%"
O=C1CC(C(F)(F)F)Cc2nc(N[C@@H]3CCCc4ccccc43)ncc21 (stereo partly shown) [2.96],0,0,0,0,10,80,100,100,100,90,80,90,100,100,100,0,0,10,0,10,"logp (HCOOH) [9]: oily; logp (HCOOH): 3.71; 1H-NMR (CDCl3, 400 MHZ, δ in ppm): ): 1.95 (m, 3H, 2H; LOLMU herbicidal activity in percent (Lolium multiflorum): 90%; STEME herbicidal activity in percent (Stellaria media; 80 g/ha): 100%; VERPE herbicidal activity in percent (Veronica persica; 80 g/ha): 100%; VIOTR herbicidal activity in percent (Viola tricolor; 80 g/ha): 100%; post-emergence efficacy TRZAS ([6]; 320 g/ha): 20%; post-emergence efficacy PHBPU (Ipomoea purpurea): 80%"
